The values below come from paper PMC2912408 (Biochemistry, 2010).

This assay concerns the target T1, rat I7 olfactory receptor (OR-I7) (Rattus norvegicus, UniProt P23270).
T1 sequence (P23270 1-327): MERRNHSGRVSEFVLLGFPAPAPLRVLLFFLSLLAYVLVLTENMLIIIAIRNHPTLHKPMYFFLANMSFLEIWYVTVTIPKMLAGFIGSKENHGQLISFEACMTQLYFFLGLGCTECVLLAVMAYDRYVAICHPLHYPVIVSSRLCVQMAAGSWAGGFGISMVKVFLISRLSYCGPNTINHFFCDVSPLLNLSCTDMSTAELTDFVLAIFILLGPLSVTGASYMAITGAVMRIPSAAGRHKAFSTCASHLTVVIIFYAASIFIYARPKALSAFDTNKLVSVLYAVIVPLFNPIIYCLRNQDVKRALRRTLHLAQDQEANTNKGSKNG
In kind it is cell-based.

Structures are written as SMILES.

As for `CCCCCCCCCC=O` [decanal], the EC50 was found to be 16 ± 1.7 µM.

With `CCCCCCCCC=O` [nonanal], the midpoint of the response, the EC50, lay at 4.4 ± 0.4 µM.

The compound `CCCCCCCCCCC=O` [undecanal] came in with an EC50 of 446 ± 16 µM.

The EC50 is the concentration at which the effect is half-maximal.
